The values that follow come from patent US7807707B2, “Hair and/or scalp care compositions incorporating amino-oxo-indole-ylidene compounds” (priority 2005, dated 2010).

Assay [1] concerns the target T1, Cannabinoid Receptor 1 (CB1R) (Homo sapiens, UniProt P21554).
T1 construct: purchased Perkin-Elmer; host or cells: HEK293
Nature of the assay: CB1R radioligand assay on membranes from HEK293 cells over-expressing human recombinant CB1. It is filed as binding. To be noted: human recombinant CB1, [3H]CP-55,490 radioligand, n=3. The procedure:
(§1) An amino-oxo-indole-ylidene compound of formula (I) was evaluated for its ability to activate Cannabinoid Receptor 1 (CB1R) and Cannabinoid Receptor 2 (CB2R). Its C log P value were also measured.
CB1R experiments were performed using membranes from HEK293 cells over-expressing human recombinant CB1, as described by the manufacturer (Perkin-Elmer) and using [3H]CP-55,490 as the radioligand.
(§2) Data of the active compound is expressed in Ki (mM) and are means±SEM of n=3 determinations.
(§3) The value stated is an EC50 value. This is defined as the molar concentration of an agonist, which produces 50% of the maximum possible response for that agonist. The values documented are in micromolar units.

For assay [2], the target named is T2, Cannabinoid Receptor 2 (CB2R) (Homo sapiens, UniProt P34972).
T2 construct: purchased Perkin-Elmer; host or cells: HEK293
The assay is described as follows: CB2R radioligand assay on membranes from HEK293 cells over-expressing human recombinant CB2. It is filed as binding. As to the method: as §1
CB2R experiments were performed using membranes from HEK293 cells over-expressing human recombinant CB2, as described by the manufacturer (Perkin-Elmer), and using [3H]CP-55,495 as the radioligand.
as §2, §3

T2 sequence (P34972 whole entry): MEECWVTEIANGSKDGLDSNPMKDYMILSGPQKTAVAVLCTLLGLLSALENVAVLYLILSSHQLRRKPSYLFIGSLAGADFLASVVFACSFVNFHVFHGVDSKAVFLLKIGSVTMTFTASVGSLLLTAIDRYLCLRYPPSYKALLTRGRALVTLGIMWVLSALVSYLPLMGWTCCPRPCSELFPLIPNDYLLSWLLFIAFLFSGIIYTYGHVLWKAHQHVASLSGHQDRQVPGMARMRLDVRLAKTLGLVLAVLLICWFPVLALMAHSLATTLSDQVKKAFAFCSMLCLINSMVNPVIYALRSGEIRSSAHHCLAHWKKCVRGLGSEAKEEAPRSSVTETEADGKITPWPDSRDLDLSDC
T1 sequence (P21554 whole entry): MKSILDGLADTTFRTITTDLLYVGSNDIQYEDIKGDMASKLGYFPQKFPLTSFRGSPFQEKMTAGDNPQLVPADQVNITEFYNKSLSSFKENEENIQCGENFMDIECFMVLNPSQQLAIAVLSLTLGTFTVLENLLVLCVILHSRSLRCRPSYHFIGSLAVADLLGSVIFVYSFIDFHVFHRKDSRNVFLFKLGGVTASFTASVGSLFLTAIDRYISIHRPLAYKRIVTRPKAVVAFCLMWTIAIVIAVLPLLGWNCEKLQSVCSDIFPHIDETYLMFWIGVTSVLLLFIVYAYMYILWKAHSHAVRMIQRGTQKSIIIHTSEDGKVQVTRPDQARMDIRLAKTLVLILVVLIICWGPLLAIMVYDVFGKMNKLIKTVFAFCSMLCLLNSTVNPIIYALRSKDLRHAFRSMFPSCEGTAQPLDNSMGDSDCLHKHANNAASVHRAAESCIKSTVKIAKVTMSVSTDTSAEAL

For `O=C(CNc1cccc2ccccc12)N/N=C1\C(=O)N(CCc2ccccc2)c2ccccc21` [Example 1, (naphthalen-1-ylamino)-acetic acid (2-oxo-1-phenethyl-1,2-dihydro-indol-3-ylidene)-hydrazide], the EC50 (as a rule, the concentration needed to bring the measured effect to its halfway point) in assay [1] is over 25 µM; in assay [2], 21.1 µM.
